From patent US11865114B2, “Method for treating diseases using SMARCA2/4 degraders” (Aurigene Discovery Technologies Limited, priority 2019, dated 2024) come the findings set out here.

A value given as a limit tells only on which side of the number the result lay.

Format in all cases: cell-based
Experiment [1] relates to Vcap (ATCC #CRL-2876) cells. The experiment in a line: Anti-proliferative activity by Cell Titer Glo assay in VCap cells. As for the experimental part: (§1) Determination of Anti-Proliferative Activity of SMARCA2/4 Degrader in Cells by Cell Titer Glo® (Promega) Assay
(§2) The prostate cancer cell lines, Vcap (ATCC #CRL-2876), LNCaP-FGC (ATCC CRL-1740), 22RV1 (ATCC CRL-2505), PC-3 (ATCC CRL-1435), DU-145 (ATCC HTB-81) and RWPE-1 (ATCC CRL-11609) were seeded in 96 well plate flat black clear bottom plates (Corning, Cat. No 3904) using respective complete media. Simultaneously cells were seeded for day 0 measurement.
(§3) On the following day, compound 43 of the present invention was added to cells from 10 mM stocks made in DMSO (Sigma Cat no. D2650). DMSO alone was used a vehicle control. Day 0 plate was terminated on day of compound addition using 50 μl of Cell Titer Glo® reagent (Promega, Cat. no G7572). Compound was incubated for 8 days, except for 22RV1 which was incubated for 6 days. Media was replenished with fresh compound on day 4. After the compound incubation, assay was terminated using 50 μl of CellTiter Glo® reagent. CellTiter Glo® Luminescent reagent determines the number of viable cells based on quantitation of ATP present which is an indicator of cell number and metabolic activity. Luminescence readings were taken in fluorescent plate reader.
(§4) Day 0 CTG measurement is designated as time zero (Tz), final CTG measurement in Vehicle control is designated as control growth DMSO (C) and test growth in the presence of drug at the nine concentration levels is designated as (Ti).
(§5) Using the measurements [time zero (Tz), growth control DMSO (C) and test growth in the presence of drug at the nine concentration levels (Ti)] the percentage growth is calculated at each of the drug concentration levels. Percentage response is calculated as: [(Ti−Tz)/(C−Tz)]×100 for Concentrations for which Ti≥Tz [(Ti−Tz)/Tz]×100 for Concentrations for which Ti<Tz
(§6) Three dose response parameters are calculated for each experimental agent. Growth inhibition of 50% (GI50) is calculated from [(Ti−Tz)/(C−Tz)]×100=50, which is the drug concentration resulting in a 50% reduction in the net luminescence increase (measured ATP) in control cells during the drug incubation.
(§7) The LC50 (concentration of drug resulting in a 50% reduction in the measured ATP at the end of the drug treatment as compared to that at the beginning) indicating a net loss of cells following treatment is calculated from [(Ti−Tz)/Tz]×100=−50.
(§8) Compound 43 of the present invention was analyzed against several cell lines representing normal and prostate cancer cells. The cell lines used in the present invention are harboring one or more tumor specific alterations such as presence of AR, PTEN mutations or TMPRSS2-ERG fusion which are presented below.

For experiment [2], the system named is DU-145 (ATCC HTB-81) cells. In words: Anti-proliferative activity by Cell Titer Glo assay in DU145 cells. How it is done:
as §1, §2, §3, §4, §5
(§9) Three dose response parameters are calculated for each experimental agent. […]
(§10) Compound 43 of the present invention was analyzed against several cell lines representing normal and prostate cancer cells. […]
In general terms: Cellular ATP, detected with luciferase, serves as a proxy for viable cell number.

Experiment [3] concerns PC-3 (ATCC CRL-1435) cells. The experiment in a line: Anti-proliferative activity by Cell Titer Glo assay in PC3 cells. How it is done: as §1, §2, §3, §4, §5, §6, §7, §8
Experiment [4] relates to LNCaP-FGC (ATCC CRL-1740) cells. In words: Anti-proliferative activity by Cell Titer Glo assay in LNCaP-FGC cells. As for the experimental part: as §1, §2, §3, §4, §5, §6, §7, §8
Experiment [5] has as its system 22RV1 (ATCC CRL-2505) cells. The experiment in a line: Anti-proliferative activity by Cell Titer Glo assay in 22RV1 cells. How it is done:
as §1, §2, §3, §4, §5, §9, §10

Experiment [6] deals with RWPE-1 (ATCC CRL-11609) cells. In words: Anti-proliferative activity by Cell Titer Glo assay in RWPE normal cells. As for the experimental part: as §1, §2, §3, §4, §5, §9, §10

For `Cc1ncsc1-c1ccc([C@H](C)NC(=O)[C@@H]2C[C@@H](O)CN2C(=O)[C@@H](NC(=O)CN2CCN(c3cc(-c4ccccc4O)nnc3N)CC2)C(C)(C)C)cc1` [Compound 43], the GI50 (usually the concentration giving 50% growth inhibition) is 3 nM in experiment [1] (Homo sapiens, 192 h, VCap cells, AR dependence +, TMPRSS2-ERG fusion +, 8 days incubation); over 10000 nM in experiment [2] (Homo sapiens, DU-145, 192 h, DU145 cells, none of the tumor-specific alterations, 8 days incubation); 51 nM in experiment [3] (Homo sapiens, PC-3, 192 h, PC3 cells, PTEN mutation +, 8 days incubation); 5 nM in experiment [4] (192 h, LnCapFGC cells, AR dependence +, PTEN mutation +, 8 days incubation); 14 nM in experiment [5] (Homo sapiens, 144 h, 22RV1 cells, AR dependence +, 6 days incubation); 260 nM in experiment [6] (Homo sapiens, RWPE-1, 192 h, RWPE (Normal) cells, normal AR, no PTEN mutation, no TMPRSS2-ERG fusion, 8 days incubation). For the same molecule, the CC50 in experiment [1] (Homo sapiens, VCap cells, 50% reduction in measured ATP versus day 0, 8 days incubation, read-out: LC50 (the source's name)) turned out to be 11 nM; in experiment [3] (Homo sapiens, PC-3, PC3 cells, 50% reduction in measured ATP versus day 0, 8 days incubation, read-out: LC50 (the source's name)) it was 3410 nM; in experiment [4] (LnCapFGC cells, 50% reduction in measured ATP versus day 0, 8 days incubation, read-out: LC50 (the source's name)) it was 22 nM. Also, the Observed cell killing entry is recorded as “Yes” in experiment [1] (VCap cells, 8 days incubation); “No” in experiment [2] (DU145 cells, 8 days incubation); “Yes” in experiment [3] (PC3 cells, 8 days incubation); “Yes” in experiment [4] (LnCapFGC cells, 8 days incubation); “No” in experiment [5] (22RV1 cells, 6 days incubation); “No” in experiment [6] (RWPE (Normal) cells, 8 days incubation). For the same molecule, the “Inhibition of cell growth and cell killing (in words)” value in experiment [1] (VCap, two tumor specific alterations, FIG. 4A) is “both growth and cell killing were potently impacted”; in experiment [2] (DU145, none of the tumor specific alterations, FIG. 2), “neither inhibition of cell growth nor cell killing was observed”; in experiment [3] (PC3, one tumor-specific alteration, FIG. 3B), “potently inhibited with no or moderate cell killing”; in experiment [4] (LnCapFGC, two tumor specific alterations, FIG. 4B), “both growth and cell killing were potently impacted”; in experiment [5] (22RV1, one tumor-specific alteration, FIG. 3A), “potently inhibited with no or moderate cell killing”; in experiment [6] (normal cell (RWPE), FIG. 1) it was “did not show any inhibition and cell killing”.
